The values that follow come from EP4786466A1, “QUINAZOLINE DERIVATIVE, SALT THEREOF, AND PHARMACEUTICAL COMPOSITION COMPRISING SAME AS ACTIVE INGREDIENT” (Korea Research Institute of Chemical Technology, priority 2023, dated 2025).

The structures appear in SMILES notation. Read-outs that look alike come from different tables or passages of the source.

Data set [1] concerns the target T1, Recombinant GST-TAG-MASTL (Homo sapiens, UniProt Q96GX5).
T1 construct: GST; purchased Thermo Fisher Scientific
T1 sequence (Q96GX5 1-879): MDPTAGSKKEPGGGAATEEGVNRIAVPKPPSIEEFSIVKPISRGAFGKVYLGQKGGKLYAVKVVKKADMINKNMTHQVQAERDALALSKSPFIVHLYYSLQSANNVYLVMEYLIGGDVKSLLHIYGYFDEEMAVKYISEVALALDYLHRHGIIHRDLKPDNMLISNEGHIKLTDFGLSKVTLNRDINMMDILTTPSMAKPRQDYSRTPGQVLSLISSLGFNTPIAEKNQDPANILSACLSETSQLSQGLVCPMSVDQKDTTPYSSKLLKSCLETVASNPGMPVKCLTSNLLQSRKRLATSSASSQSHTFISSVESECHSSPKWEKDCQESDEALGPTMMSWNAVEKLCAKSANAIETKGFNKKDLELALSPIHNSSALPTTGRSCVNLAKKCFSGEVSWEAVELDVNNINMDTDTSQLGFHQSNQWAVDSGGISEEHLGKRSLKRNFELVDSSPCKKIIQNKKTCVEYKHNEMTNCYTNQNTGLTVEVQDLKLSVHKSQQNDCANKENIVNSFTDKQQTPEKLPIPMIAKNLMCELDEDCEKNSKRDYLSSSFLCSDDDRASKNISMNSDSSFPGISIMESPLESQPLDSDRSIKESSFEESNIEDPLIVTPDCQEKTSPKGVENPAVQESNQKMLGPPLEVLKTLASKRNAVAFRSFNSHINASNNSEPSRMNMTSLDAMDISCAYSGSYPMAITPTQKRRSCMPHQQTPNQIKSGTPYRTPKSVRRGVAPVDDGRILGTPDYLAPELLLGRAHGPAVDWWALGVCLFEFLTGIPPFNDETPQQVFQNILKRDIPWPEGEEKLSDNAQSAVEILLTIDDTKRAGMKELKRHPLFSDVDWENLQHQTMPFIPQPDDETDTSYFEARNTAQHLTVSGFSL
In words: HTRF-based kinase assay (HTRF KinEASE assay kit). It counts as biochemical. Particulars: for activity at 10 µM: footnote b: concentration 10 µM; for activity at 1 µM: read-out: MASTL activity (%) HTRF (1 µM). The text has this:
Recombinant GST-TAG-MASTL (Thermo Fisher Scientific, MA, USA) was used for HTRF-based kinase assays. The HTRF KinEASE assay kit (CisBio, MA, USA) was used according to the manufacturer's instructions.
On the technique in general: In TR-FRET formats the signal depends on donor and acceptor labels being close together.

In the next data set the test system is pENSA. In words: pENSA level by immunofluorescence (described method: in vitro kinase analysis with GST-tag-MASTL and His-tag-ENSA). It counts as cell-based. Particulars: for pENSA (%) Immunofluor ecense (1 µM): compound 1 µM; for IC50: read-out: IC50(nM) pENSA. Summed up:
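In vitro kinase reaction using recombinant GST-tagged MASTL with His-tagged ENSA as substrate; phosphorylated ENSA (pENSA) serves as read-out of MASTL activity. Cell lines named: MCF7 breast cancer and MCF10A.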

The nature of another data set: in vitro. Particulars: human.
The subject of data set [2] is MCF7 breast cancer cell lines. The data set is described as follows: Cell viability analysis, WST-8 assay, MCF7. Particulars: Homo sapiens, MCF7, 72 h; for viability at 1.25 µM: read-out: Cell viability (%) WST-8, MCF7, footnote a: concentration 1.25 µM, 72 hours; for viability at 1 µM: read-out: Cell viability (%) WST-8, MCF7 (1 µM), compound 1 µM, 72 hours; for viability at 1.1 µM: read-out: Cell viability (%) WST-8, MCF7, footnote d: concentration 1.1 µM, 72 hours. On the technique in general: Tetrazolium assays rely on reduction of a dye to a coloured formazan, in cell work by metabolically active cells.
Method: (§1) MCF7 breast cancer cell lines and MCF10A normal breast cancer cell lines were treated with serial dilutions of the compounds of the present invention ranging from 1 µM to 15.63 nM for 72 hours. Cell viability was measured by the WST-8 assay (Cyto XTM cell viability assay kit; LPS solution, Daejeon, Korea) according to the manufacturer's instructions.

Data set [3] has as its system MCF10A normal breast cell lines. The data set is described as follows: Cell viability analysis, WST-8 assay, MCF10A. The settings on record: Homo sapiens, MCF-10A, 72 h.
Method: as §1
[4] abbreviates: HTRF, read-out: IC50(nM) MASTL activity.
Setting [5] is: read-out: MASTL activity (%) HTRF.
[6] abbreviates: read-out: IC50 Cell viability (MCF7).
Setting [7] is: read-out: IC50(nM) Cell viability (MCF10A).
The mark [8] stands for this setting: read-out: IC50(nM) Cell viability (MCF7).
Where [9] appears, read: read-out: IC50 Cell viability (MCF10A).

With `OCCN1CCN(c2nc(Nc3cc(C4CC4)[nH]n3)c3ccccc3n2)CC1` [compound 12b, 2-(4-(4-((5-cyclopropyl-1G-pyrazol-3-yl)amino)quinazolin-2-yl)piperazin-1-yl)ethan-1-ol], the IC50 (commonly the point on the concentration scale where inhibition reaches its midpoint) in data set [1] (setting [4]) is 807 nM; in the data set on pENSA, 852 nM; in data set [2] (setting [6]), 1500 nM; in data set [3] (setting [7]), 2600 nM. The activity at 10 µM in data set [1] (setting [5]) turned out to be 17.7%. In addition, the “pENSA (%) Immunofluor ecense (1 µM)” value in the data set on pENSA is 41.7%. The viability at 1.25 µM in the data set “in vitro” (mcf10a cells) stood at 123%; in data set [2], 69.4%.

For `c1ccc2c(Nc3cc(C4CC4)[nH]n3)nc(N3CC4CC3CN4)nc2c1` (centres unmarked) [compound 14, 2-(2,5-diazabicyclo[2.2.1]heptan-2-yl)-M-(5-cyclopropyl-1G-pyrazol-3-yl)quinazolin-4-amine Trifluoroacetic acid], the IC50 in data set [1] worked out at 593 nM; in the data set on pENSA, 645 nM; in data set [2] (setting [8]), 647 nM; in data set [3] (setting [9]), 1700 nM. Besides, the activity at 1 µM in data set [1] worked out at 25.5%. In the data set with pENSA, the “pENSA (%) Immunofluor ecense (1 µM)” value was 9.2%. Further, the viability at 1 µM turned out to be 63.4% in the data set “in vitro” (mcf10a cells) and 21.8% in data set [2].

As to `c1ccc2c(Nc3cc(C4CC4)[nH]n3)nc(N3CC4CCC3CN4)nc2c1` (centres unmarked) [compound 20, 2-(2,5-diazabicyclo[2.2.2]octan-2-yl)-M-(5-cyclopropyl-1G-pyrazol-3-yl)quinazolin-4-amine trifluoroacetic acid], the IC50 in data set [1] was determined as 194 nM; in the data set on pENSA, 66.5 nM; in data set [2] (setting [8]) it was 150 nM; in data set [3] (setting [7]), 131 nM. Besides, in data set [1], the activity at 1 µM was 36.5%. Moreover, the “pENSA (%) Immunofluor ecense (1 µM)” value in the data set on pENSA is given as 30.9%. Further, the viability at 1 µM in the data set “in vitro” (mcf10a cells) is 3.9%; in data set [2], 5.5%.

For the molecule `CC(C)S(=O)(=O)N1CC2CC1CN2c1nc(Nc2cc(C3CC3)[nH]n2)c2ccccc2n1` (centres unmarked) [compound 15h, M-(5-cyclopropyl-1G-pyrazol-3-yl)-2-(5-(isopropylsulfonyl)-2,5-diazabicyclo[2.2.1]heptan-2-yl)quinazolin-4-amine], the IC50 in data set [1] (setting [4]) came out at 147 nM; in data set [2] (setting [6]) it was 1700 nM; in data set [3] (setting [7]), 833 nM. In addition, the activity at 1 µM in data set [1] (compound 1 µM) stood at 15.7%. Besides, the “pENSA (%) Immunofluor ecense (1 µM)” value in the data set with pENSA amounted to 51.7%. For the same molecule, the results for the viability at 1.1 µM (in “in vitro” (mcf10a cells); in data set [2]) were 45% and 94.5%, respectively.

As for `CC(C)(C)OC(=O)N1CC2CCC1CN2c1nc(Nc2cc(C3CC3)[nH]n2)c2ccccc2n1` (centres unmarked) [compound 19, sdqs,butyl 5-(4-((5-cyclopropyl-1G-pyrazol-3-yl)amino)quinazolin-2-yl)-2,5-diazabicyclo[2.2.2]octane-2-carboxylate], the IC50 turned out to be 569 nM in data set [1] (setting [4]), 1100 nM in data set [2] (setting [6]) and 810 nM in data set [3] (setting [7]). For the same molecule, in data set [1] (compound 1 µM), the activity at 1 µM worked out at 39.9%. The “pENSA (%) Immunofluor ecense (1 µM)” value in the data set with pENSA stood at 84.7%. The results for the viability at 1 µM (in “in vitro” (mcf10a cells); in data set [2]) were 71.3% and 41.2%, respectively.

Consider `O=S(=O)(c1ccc(F)cc1F)N1CC2CC1CN2c1nc(Nc2cc(C3CC3)[nH]n2)c2ccccc2n1` (centres unmarked) [compound 15o, M-(5-cyclopropyl-1G-pyrazol-3-yl)-2-(5-((2,4-difluorophenyl)sulfonyl)-2,5-diazabicyclo[2.2.1]heptan-2-yl)quinazolin-4-amine], for which the IC50 turned out to be 170 nM in data set [1] (setting [4]), 3700 nM in data set [2] (setting [6]) and 2400 nM in data set [3] (setting [9]). Further, the activity at 1 µM in data set [1] (compound 1 µM) amounted to 20.3%. The “pENSA (%) Immunofluor ecense (1 µM)” value with pENSA came to 90.3%. The viability at 1.1 µM is 92.6% in the data set “in vitro” (mcf10a cells) and 119% in data set [2].

Take `c1ccc2c(Nc3cc(C4CC4)[nH]n3)nc(N3CCC4(CC3)OCCO4)nc2c1` [compound 6a, M-(5-cyclopropyl-1G-pyrazol-3-yl)-2-(1,4-dioxa-8-azaspiro[4.5]decan-8-yl)quinazolin-4-amine]: the IC50 was 340 nM in data set [1] (setting [4]), 532 nM in the data set with pENSA, 499 nM in data set [2] (setting [8]) and 392 nM in data set [3] (setting [7]). Also, the activity at 1 µM in data set [1] (compound 1 µM) was found to be 15.2%. The “pENSA (%) Immunofluor ecense (1 µM)” value in the data set with pENSA turned out to be 10.1%. The viability at 1 µM amounted to 20.9% in “in vitro” (mcf10a cells) and 13.2% in data set [2].

Turning to `NCCCNC(=O)c1ccc(Nc2nc(Nc3cc(C4CC4)[nH]n3)c3ccccc3n2)cc1` [4ab, M-(3-aminopropyl)-4-((4-((5-cyclopropyl-1G-pyrazol-3-yl)amino)quinazolin-2-yl)amino)benzamide.trifluoroacetic acid], the half-inhibitory concentration (IC50) in data set [1] came out at 1100 nM; in data set [2] (setting [6]), 12400 nM; in data set [3] (setting [9]), 5800 nM. Further, the activity at 1 µM in data set [1] is 36.2%. For the same molecule, the “pENSA (%) Immunofluor ecense (1 µM)” value in the data set on pENSA stood at 188%. Further, the viability at 1 µM (in “in vitro” (mcf10a cells); in data set [2]) was 101% each time.

Turning to `c1ccc2c(Nc3cc(C4CC4)[nH]n3)nc(N3CC4CCC(C3)N4)nc2c1` [20' (B), 2-(3,8-diazabicyclo[3.2.1]octan-3-yl)-M-(5-cyclopropyl-1G-pyrazol-3-yl)quinazolin-4-amine trifluoroacetic acid], the IC50 in data set [1] turned out to be 106 nM; in the data set on pENSA, 755 nM; in data set [2] (setting [8]) it was 365 nM; in data set [3] (setting [7]), 596 nM. Besides, the activity at 1 µM in data set [1] amounted to 6.6%. Further, the “pENSA (%) Immunofluor ecense (1 µM)” value in the data set on pENSA is on record as 21%. In addition, the figures for the viability at 1 µM (in the data set “in vitro” (mcf10a cells); in data set [2]) were 34.9% and 32%, respectively.

Consider `CCNC(=O)N1CC2CC1CN2c1nc(Nc2cc(C3CC3)[nH]n2)c2ccccc2n1` (centres unmarked) [compound 15a, 5-(4-((5-cyclopropyl-1G-pyrazol-3-yl)amino)quinazolin-2-yl)-M-ethyl-2,5-diazabicyclo[2.2.1]heptane-2-carboxamide], for which the IC50 in data set [1] (HTRF, unit µM, read-out: IC50 MASTL activity) was found to be 1100 nM; in data set [3] (setting [7]), 820 nM. Moreover, in data set [1] (footnote a: concentration 1.25 µM, read-out: MASTL activity (%) HTRF), the activity at 1.25 µM came to 61.1%. For the same molecule, the “pENSA (%) Immunofluor ecense (1 µM)” value with pENSA was determined as 86.1%. In addition, the viability at 1.25 µM came to 37% in the data set “in vitro” (mcf10a cells) and 61% in data set [2].

In the case of `CNCc1ccc(-c2nc(Nc3cc(C4CC4)[nH]n3)c3ccccc3n2)cc1` [9d, N-(5-cyclopropyl-1H-pyrazol-3-yl)-2-(4-((methylamino)methyl)phenyl)quinazolin-4-amine hydrogen chloride], the IC50 is 119 nM in data set [1] (setting [4]), 577 nM in the data set on pENSA, 539 nM in data set [2] (setting [8]) and 413 nM in data set [3] (setting [7]). In addition, the activity at 10 µM in data set [1] (setting [5]) amounted to 20.4%. Further, the viability at 1.25 µM is 11.1% in “in vitro” and 36.2% in data set [2].

In the case of `O=C(Nc1ccc(F)cc1)N1CCN(c2nc(Nc3cc(C4CC4)[nH]n3)c3ccccc3n2)CC1` [compound 12d, 4-(4-((5-cyclopropyl-1G-pyrazol-3-yl)amino)quinazolin-2-yl)-M-(4-fluorophenyl)piperazine-1-carboxamide], the IC50 in data set [1] (setting [4]) is 832 nM; in the data set with pENSA, 571 nM; in data set [2] (setting [6]), 1500 nM; in data set [3] (setting [9]) it was 1500 nM. Moreover, the activity at 10 µM in data set [1] (setting [5]) worked out at 14.1%. In addition, the “pENSA (%) Immunofluor ecense (1 µM)” value with pENSA worked out at 46.3%. In addition, the viability at 1.25 µM was 63.7% in “in vitro” (mcf10a cells) and 55.8% in data set [2].
